{"source": "patent US6441036B1", "about": "(priority 1998, dated 2002)", "key": {"[1]": {"assay": "Hepatic levels of triacylglycerol (Example 17)", "type": "in vivo, Wistar rats", "details": "fed 6 days, no prefeeding; TTA 150 mg/kg/day, TTP 300 mg/kg/day", "protocol": "Male Wistar rats had free access to water and rat maintenance chow. They were fed palmitic acid or fatty acid analogues suspended in 0.5% CMC for 6 days. In some experiments TTA or TTP were fed for 3 days before feeding both for 6 days. At the end of the experiment the rats were fasted overnight, killed, the liver removed and homogenized. Triacylglycerol was measured in the homogenate."}, "[2]": {"assay": "28 days toxicity study in dogs (GLP)", "type": "in vivo", "text": "A 28 days toxicity study in dogs according to GLP guide-lines has been performed by Corning Hazleton (Europe), England. […] Some lipid related parameters were lowered in the animals given high dosages. This is consistent with the pharmacological activity of TTA."}, "[3]": {"assay": "Lipid lowering effect in obese Zucker fa/fa rats (Example 3)", "type": "in vivo", "details": "300 mg/day/kg by gavage once daily for 10 days; control palmitic acid", "protocol": "(§1) Glucose (GLU, Boehringer Mannheim, Germany), free fatty acids (NEFA, C ACS-ACOD kit; Wako Chemicals, Dalton, USA) and b-hydroxybutyrate (310-A kit; Sigma Diagnostics Inc., St. Louis, USA) concentrations were measured using enzymatic methods. Insulin concentrations were determined with radioimmunoassay by (CIS bio International, Gif sur Yvette, France) using rat insulin as standard in the Zucker rats. In the Wistar Charles River rats, plasma glucose concentrations were measured with the aid of Beckman Glucose Analyzer (Fullerton, Calif., USA). Plasma insulin levels were measured using a RIA kit from Linco Research Inc. (St. Charles, Mo., USA). Phospholipids were measured by the enzymatic method of bioMérieux, Marcy-l{grave over ( )}Etoile, France, Triacylglycerol by the Technicon Method no. SA4-0324L90, USA and Cholesterol by the Technicon Method no. SA4-0305L90, USA.\nMale obese Zucker fa/fa rats, weighing 100 g at the start of the experiment, were housed in pairs in metal wire cages in a room maintained at 12 h light-dark cycles and a constant temperature of 20±3° C. The animals were acclimatised for at least one week under these conditions before the start of the experiment.\nTTA (tetradecylthioacetic acid) prepared in accordance with procedure described previously, and palmitic acid (control), was suspended in 0.5% (w/v) carboxymethyl cellulose (CMC). Six animals were used in both groups. TTA (tetradecylthioacetic acid) and palmitic acid were administered at a dose of 300 mg/day/kg body weight, by gastric intubation (gavage) once daily for 10 days. The rats were fasted for 2 hours before termination of the experiment. Blood and organs were collected. Lipid concentrations in plasma were determined using an autoanalyzer, as described in the method section."}, "[4]": {"assay": "Blood insulin and glucose in 5 weeks old Zucker (fa/fa) rats (Example 13)", "type": "in vivo", "details": "300 mg/kg/day by oral gavage, 11 days", "protocol": "as §1\nThe rats were administered TTA at a dose of 300 mg/kg/day suspended in 0.5% CMC (n=6) by oral gavage. Following 11 days of treatment, rats were killed by cervical dislocation. Blood was collected and the levels of insulin and glucose measured as indicated in the method section. Data are means±S.D."}, "[5]": {"assay": "Weight reduction in dogs (Example 10)", "type": "in vivo", "details": "male dogs, 500 mg/kg/day orally in capsules", "protocol": "3 male dogs (4-6 months old) were housed singly during the days. Each animal was offered 400g of SQC Diet A each morning after dosing and any residue diet was removed in the afternoon. The drug was administered orally in capsules once daily for 28 days."}, "[6]": {"assay": "Lipid lowering effect in normal Wistar rats (Example 4)", "type": "in vivo", "details": "gavage once daily for 7 days; dose mg/day/kg body weight: TSA 15, EPA 1500, TTA 150", "experimental": "Male Wistar rats, weighing 180-200 g at the start of the experiment, were housed individually in metal wire cages in a room maintained at 12 h light-dark cycles and a constant temperature of 20±3° C. The animals were acclimatised for one week under these conditions before the start of the experiments.\nTTA, TSA and eicosapentaenoic acid (EPA) were suspended in 0.5% (w/v) carboxymethyl cellulose (CMC). Six animals were used for each treatment, and a 0.5% CMC solution was administrated to the rats as control. After administration of the test compound, the rats were fasted for 12 hours and anaesthetised with haloethan. The EPA and the fatty acid derivatives were administered by gastric intubation (gavage) once daily for 7 days. Blood samples were collected by cardiac puncture, and lipid concentrations in plasma were determined as outlined in the method section."}, "[7]": {"assay": "Body weight gain, liver and adipose tissue weight in young obese Zucker rats (Example 9)", "type": "in vivo, obese Zucker (fa/fa) rats", "details": "5 week-old male rats, TTA 300/kg/day in 0.5% CMC, 11 days; means ± SD", "protocol": "The obese Zucker (fa/fa) rats used in this study were bred at the U 465 INSERM animal facility from pairs originally provided by the Harriet G. Bird Laboratory (Stow, Mass., USA). Unless otherwise stated, the animals were maintained under a constant light-dark cycle (light from 7:00 a.m. to 7:00 p.m.) at 21±1° C. and were given free access to food and water. Three rats were housed per cage. Weight gains were recorded daily.\n5 week-old male obese Zucker (fa/fa) rats fed with TTA, 300/kg/day suspended in 0.5% CMC. Control animals received CMC only. Following 11 days of treatment, rats were killed by cervical dislocation, liver and epididymal adipose tissue pads were dissected out and weighed. Data are means±SD of 6 animals in the control- and 6 animals in the experimental group."}, "Escherichia coli": {"tested_on": "Escherichia coli", "assay": "Test for mutagenic activity in Escherichia coli strains", "type": "cell-based", "details": "3-1000 mg/plate (TTA), 2-5000 mg/plate (TSA)", "text": "(§2) Tests for mutagenic activity have been performed by Covance Laboratories Limited, England. […] Furthermore, TTA was not mutagenic when tested in mouse lymphoma cells […] L5178Y."}, "[8]": {"assay": "Blood insulin and glucose in 4 month old obese Zucker (fa/fa) rats (Example 13)", "type": "in vivo", "details": "standard chow with 0.15% TTA, 21 days", "protocol": "as §1\nThe rats were given a standard chow diet, either with (n=5) or without (n=6) 0.15% TTA. Following 21 days of treatment, blood was collected and the levels of insulin and glucose measured. Data are means±S.D."}, "[9]": {"tested_on": "mouse lymphoma cells, L5178Y", "assay": "Mutagenicity test in mouse lymphoma cells L5178Y", "type": "cell-based", "details": "concentration 2.5-50 mg/ml", "text": "as §2"}, "Salmonella typhimurium": {"tested_on": "Salmonella typhimurium", "assay": "Test for mutagenic activity in Salmonella typhimurium strains", "type": "cell-based", "details": "3-1000 mg/plate (TTA), 2-5000 mg/plate (TSA)", "text": "as §2"}, "[10]": {"assay": "High fat diet induced hyperinsulinemia (Example 11)", "type": "in vivo, Wistar Charles River rats", "details": "HF diet supplemented with TTA, 21 days, overnight fast", "protocol": "as §1\nRats weighing 280-360 g were divided into 3 groups (n=6) and fed with three different diets: standard rat chow, high fat diet (HF) and HF supplemented with TTA. After 21 days on their respective diets, blood was collected after an overnight fast from the tail vein. The data are shown as mean±SEM. Results were analysed by ANOVA and different letters denote statistical significance (p<0.05)."}}}
{"substance": "Tetradecylthioacetic acid [TTA]", "values": [{"measurement": "Hepatic TG (triacylglycerol)", "setting": "[1]", "value": "7.7 ± 2.9", "unit": "µmol/g"}, {"measurement": "Lipid related parameters", "setting": "[2]; animals given high dosages", "value": "lowered"}, {"measurement": "Body weight", "setting": "[2]; dose level of 500 mg/kg/day", "value": "body weight loss"}, {"measurement": "Evidence of toxicity", "setting": "[2]; dose levels of 50 or 500 mg/day/kg, 28 days", "value": "no evidence of toxicity"}, {"measurement": "Tolerability", "setting": "[2]; oral administration, dose levels up to 500 mg/kg/day, 28 days", "value": "generally well tolerated"}, {"measurement": "Decreased lipid level in plasma: Cholesterol", "setting": "[3]", "value": "73 % of control"}, {"measurement": "Decreased lipid level in plasma: Phospholipids", "setting": "[3]", "value": "71 % of control"}, {"measurement": "Decreased lipid level in plasma: Triglycerides", "setting": "[3]", "value": "72 % of control"}, {"measurement": "Reduction of blood concentration of glucose (FIG. 5)", "setting": "[4]", "value": "~15", "unit": "%"}, {"measurement": "Reduction of blood insulin concentration (FIG. 5)", "setting": "[4]", "value": "~40", "unit": "%"}, {"measurement": "Mean body weight", "setting": "[5]; week 0", "value": 9.22, "unit": "kg"}, {"measurement": "Mean body weight", "setting": "[5]; week 1", "value": 8.95, "unit": "kg"}, {"measurement": "Mean body weight", "setting": "[5]; week 2", "value": 8.75, "unit": "kg"}, {"measurement": "Mean body weight", "setting": "[5]; week 3", "value": 8.58, "unit": "kg"}, {"measurement": "Mean body weight", "setting": "[5]; week 4", "value": 8.50, "unit": "kg"}, {"measurement": "Plasma lipids: cholesterol", "setting": "[6]", "value": "30 % reduction of control"}, {"measurement": "Plasma lipids: triglycerides", "setting": "[6]", "value": "45 % reduction of control"}, {"measurement": "Body weight gain", "setting": "[7]", "value": "6.23 ± 0.28", "unit": "g/day"}, {"measurement": "Induction of mutations", "setting": "Escherichia coli", "value": "did not induce mutations"}, {"measurement": "Blood glucose concentration (FIG. 6)", "setting": "[8]", "value": "reduces"}, {"measurement": "Blood insulin concentration (FIG. 6)", "setting": "[8]", "value": "reduces"}, {"measurement": "Mutagenicity", "setting": "[9]", "value": "not mutagenic"}, {"measurement": "Induction of mutations", "setting": "Salmonella typhimurium", "value": "did not induce mutations"}, {"measurement": "High fat diet-induced hyperinsulinemia (FIG. 3)", "setting": "[10]", "value": "prevents high fat diet-induced hyperinsulinemia"}]}
